# Source: publication PMC6149889, “Synthesis, Analysis, Cholinesterase-Inhibiting Activity and Molecular Modelling Studies of 3-(Dialkylamino)-2-hydroxypropyl 4-[(Alkoxy-carbonyl)amino]benzoates and Their Quaternary Ammonium Salts” (Molecules : A Journal of Synthetic Chemistry and Natural …, 2017)
# Where two headings read alike, the source gives them in different places.
# Columns and labels:
# [1] = molecular target: AChE (electric eel) (Electrophorus electricus, UniProt O42275); experiment: Ellman assay, 96-well, […] nm; assay type: biochemical
# Chain of AChE (electric eel) (O42275 24-633): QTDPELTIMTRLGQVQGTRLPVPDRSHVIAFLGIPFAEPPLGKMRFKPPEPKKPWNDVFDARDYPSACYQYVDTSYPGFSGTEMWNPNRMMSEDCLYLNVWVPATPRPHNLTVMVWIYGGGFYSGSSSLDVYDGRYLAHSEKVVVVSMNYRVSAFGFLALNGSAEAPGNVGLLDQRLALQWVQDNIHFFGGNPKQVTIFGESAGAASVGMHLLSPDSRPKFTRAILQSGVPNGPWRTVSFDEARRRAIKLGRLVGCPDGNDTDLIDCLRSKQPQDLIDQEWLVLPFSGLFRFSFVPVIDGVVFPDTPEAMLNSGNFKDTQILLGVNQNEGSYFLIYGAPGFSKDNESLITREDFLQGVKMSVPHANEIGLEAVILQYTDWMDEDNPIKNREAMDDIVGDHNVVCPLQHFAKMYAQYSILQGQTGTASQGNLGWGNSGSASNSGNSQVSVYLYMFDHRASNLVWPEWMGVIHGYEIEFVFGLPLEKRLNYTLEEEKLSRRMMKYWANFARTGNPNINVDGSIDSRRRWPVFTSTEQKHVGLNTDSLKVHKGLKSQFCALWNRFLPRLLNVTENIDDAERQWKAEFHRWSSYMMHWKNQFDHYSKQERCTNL
# [2] = molecular target: T1, BuChE (equine serum) (Equus caballus, UniProt P81908); experiment: Ellman assay, 96-well, […] nm; assay type: biochemical
# T1 construct: gene BCHE
# T1 sequence (P81908 whole entry): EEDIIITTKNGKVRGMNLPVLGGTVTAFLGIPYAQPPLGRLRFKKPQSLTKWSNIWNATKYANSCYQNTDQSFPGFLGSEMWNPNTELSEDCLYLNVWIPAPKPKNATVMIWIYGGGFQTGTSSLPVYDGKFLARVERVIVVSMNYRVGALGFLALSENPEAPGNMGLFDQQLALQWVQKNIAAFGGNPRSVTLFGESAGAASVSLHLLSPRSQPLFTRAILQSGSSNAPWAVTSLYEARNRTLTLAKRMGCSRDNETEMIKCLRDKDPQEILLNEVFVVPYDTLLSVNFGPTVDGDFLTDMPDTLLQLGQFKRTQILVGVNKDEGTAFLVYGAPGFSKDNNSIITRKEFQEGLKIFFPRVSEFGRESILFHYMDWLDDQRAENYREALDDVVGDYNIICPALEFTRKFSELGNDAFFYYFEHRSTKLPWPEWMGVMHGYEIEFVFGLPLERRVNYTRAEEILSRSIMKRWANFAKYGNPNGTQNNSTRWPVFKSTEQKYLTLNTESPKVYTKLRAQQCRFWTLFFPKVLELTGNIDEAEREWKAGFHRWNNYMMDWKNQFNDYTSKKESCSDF
SMILES,IC50 [1],IC50 [2],IC50 ([1]; read-out: AChE IC50)
"COC(=O)Nc1ccc(C(=O)OCC(O)CN(C)C)cc1 (stereo not drawn) [5a, (2-Hydroxy-3-{4-[(methoxycarbonyl)amino]benzoyloxy}propyl)dimethylammonium chloride]",> 100 µM,> 100 µM,–
"CCOC(=O)Nc1ccc(C(=O)OCC(O)CN(C)C)cc1 (stereo not drawn) [5b, (3-{4-[(ethoxycarbonyl)amino]benzoyloxy}-2-hydroxypropyl)dimethylammonium chloride]",> 100 µM,> 100 µM,–
"CCCOC(=O)Nc1ccc(C(=O)OCC(O)CN(C)C)cc1 (stereo not drawn) [5c, (2-Hydroxy-3-{4-[(propoxycarbonyl)amino]benzoyloxy}propyl)dimethylammonium chloride]",–,> 100 µM,> 100 µM
"CCCCOC(=O)Nc1ccc(C(=O)OCC(O)CN(C)C)cc1 (stereo not drawn) [5d, (3-{4-[(Butoxycarbonyl)amino]benzoyloxy}-2-hydroxypropyl)dimethylammonium chloride]",–,> 100 µM,> 100 µM
"CCN(CC)CC(O)COC(=O)c1ccc(NC(=O)OC)cc1 (stereo not drawn) [5e, Diethyl-(2-hydroxy-3-{4-[(methoxycarbonyl)amino]benzoyloxy}propyl)ammonium chloride]",–,> 100 µM,> 100 µM
"CCOC(=O)Nc1ccc(C(=O)OCC(O)CN(CC)CC)cc1 (stereo not drawn) [5f, (3-{4-[(Ethoxycarbonyl)amino]benzoyloxy}-2-hydroxypropyl)diethylammonium chloride]",> 100 µM,> 100 µM,–
"COC(=O)Nc1ccc(C(=O)OCC(O)C[N+](C)(C)C)cc1 (stereo not drawn) [6a, (2-Hydroxy-3-{4-[(methoxycarbonyl)amino]benzoyloxy}propyl)trimethylammonium iodide]",> 100 µM,> 100 µM,–
"CC[N+](C)(C)CC(O)COC(=O)c1ccc(NC(=O)OC)cc1 (stereo not drawn) [6b, Ethyl(2-hydroxy-3-{4-[(methoxycarbonyl)amino]benzoyloxy}propyl)dimethylammonium iodide]",–,> 100 µM,100 µM
"COC(=O)Nc1ccc(C(=O)OCC(O)C[N+](C)(C)C(C)C)cc1 (stereo not drawn) [6c, (2-Hydroxy-3-{4-[(methoxycarbonyl)amino]benzoyloxy}propyl)dimethyl(propan-2-yl)ammonium iodide]",> 100 µM,> 100 µM,–
"CCOC(=O)Nc1ccc(C(=O)OCC(O)C[N+](C)(C)C)cc1 (stereo not drawn) [6d, (3-{4-[(Ethoxycarbonyl)amino]benzoyloxy}-2-hydroxypropyl)trimethylammonium iodide]",–,> 100 µM,> 100 µM
"CCOC(=O)Nc1ccc(C(=O)OCC(O)C[N+](C)(C)CC)cc1 (stereo not drawn) [6e, (3-{4-[(Ethoxycarbonyl)amino]benzoyloxy}-2-hydroxypropyl)(ethyl)dimethylammonium iodide]",> 100 µM,> 100 µM,–
"CCOC(=O)Nc1ccc(C(=O)OCC(O)C[N+](C)(CC)CC)cc1 (stereo not drawn) [6f, (3-{4-[(Ethoxycarbonyl)amino]benzoyloxy}-2-hydroxypropyl)diethylmethylammonium iodide]",–,> 100 µM,56 µM
"CCCOC(=O)Nc1ccc(C(=O)OCC(O)C[N+](C)(C)C)cc1 (stereo not drawn) [6g, (2-Hydroxy-3-{4-[(propoxycarbonyl)amino]benzoyloxy}propyl)trimethylammonium iodide]",–,> 100 µM,> 100 µM
"CCCOC(=O)Nc1ccc(C(=O)OCC(O)C[N+](C)(CC)CC)cc1 (stereo not drawn) [6h, Diethyl (2-hydroxy-3-{4-[(propoxycarbonyl)amino]benzoyloxy}propyl)methylammonium iodide]",58 µM,> 100 µM,–
"CCCCOC(=O)Nc1ccc(C(=O)OCC(O)C[N+](C)(C)C)cc1 (stereo not drawn) [6i, (3-{4-[(Butoxycarbonyl)amino]benzoyloxy}-2-hydroxypropyl)trimethylammonium iodide]",> 100 µM,> 100 µM,–
